Experimental data reported in ChEMBL document CHEMBL3272194, “Antiinflammatory activity of some 2,3-dihydrobenzofuran-5-acetic acids and related compounds” (J Med Chem, 1976).

Columns and labels:
Rattus norvegicus [1] = assay: Antiinflammatory activity in Wistar rat assessed as reduction in carrageenan-induced paw edema at 100 mg/kg, po treated 2 hrs before carrageenan challenge measured after 3 hrs; type: functional
Rattus norvegicus [2] = assay: Antiinflammatory activity in Wistar rat assessed as reduction in carrageenan-induced paw edema at 20 mg/kg, po treated 2 hrs before carrageenan challenge measured after 3 hrs; type: functional
Rattus norvegicus [3] = assay: Toxicity in po dosed Wistar rat assessed as gastric irritation at 20 to 100 mg/kg, po; type: organism-based, Stomach; design: dose 20-100 mg/kg, route oral; details: in vivo
Rattus norvegicus [4] = assay: Antiinflammatory activity in po dosed Wistar rat assessed as reduction in carrageenan-induced paw edema treated 2 hrs before carrageenan challenge measured after 3 hrs; type: functional
[5] = Toxicity in po dosed Wistar rat; type: organism-based; details: in vivo
Rattus norvegicus [6] = assay: Antiinflammatory activity in Wistar rat assessed as reduction in carrageenan-induced paw edema at 50 mg/kg, po treated 2 hrs before carrageenan challenge measured after 3 hrs; type: functional
Rattus norvegicus [7] = assay: Antiinflammatory activity in Wistar rat assessed as reduction in carrageenan-induced paw edema at 10 mg/kg, po treated 2 hrs before carrageenan challenge measured after 3 hrs; type: functional
Rattus norvegicus [8] = assay: Toxicity in po dosed Wistar rat assessed as gastric irritation at 10 to 50 mg/kg, po; type: organism-based, Stomach; design: dose 10-50 mg/kg, route oral; details: in vivo

CC1Cc2cc(CC(=O)O)cc(Cl)c2O1 (configuration not stated)
inhibition in vivo at 100 mg/kg (Rattus norvegicus [1]): 27% | inhibition in vivo at 20 mg/kg (Rattus norvegicus [2]): 20% | Activity (Rattus norvegicus [3]): Toxic

CC1Oc2c(Cl)cc(CC(=O)O)cc2C1C.NC1CCCCC1 (configuration not stated)
inhibition in vivo at 100 mg/kg (Rattus norvegicus [1]): 30% | inhibition in vivo at 20 mg/kg (Rattus norvegicus [2]): 24% | Activity (Rattus norvegicus [3]): Toxic

CC1(C)Cc2cc(CC(=O)O)cc(Cl)c2O1
inhibition in vivo at 100 mg/kg (Rattus norvegicus [1]): 37% | inhibition in vivo at 20 mg/kg (Rattus norvegicus [2]): 30% | Activity (Rattus norvegicus [3]): Toxic

CC1(C)Cc2cc(CC(=O)O)ccc2O1
inhibition in vivo at 100 mg/kg (Rattus norvegicus [1]): 32% | inhibition in vivo at 20 mg/kg (Rattus norvegicus [2]): 25% | Activity (Rattus norvegicus [3]): Toxic

CC1(C)Cc2cc(CC(=O)NO)cc(Cl)c2O1
inhibition in vivo at 100 mg/kg (Rattus norvegicus [1]): 13% | inhibition in vivo at 20 mg/kg (Rattus norvegicus [2]): 7% | Activity (Rattus norvegicus [3]): Toxic

CC1(C)Cc2cc(CC(=O)NO)ccc2O1
inhibition in vivo at 100 mg/kg (Rattus norvegicus [1]): 9% | inhibition in vivo at 20 mg/kg (Rattus norvegicus [2]): 5% | Activity (Rattus norvegicus [3]): Toxic

CC1(C)Cc2cc(CC(N)=O)cc(Cl)c2O1
inhibition in vivo at 100 mg/kg (Rattus norvegicus [1]): 31% | inhibition in vivo at 20 mg/kg (Rattus norvegicus [2]): 25% | Activity (Rattus norvegicus [3]): Toxic

CC1(C)Cc2cc(CC(N)=O)ccc2O1
inhibition in vivo at 100 mg/kg (Rattus norvegicus [1]): 20% | inhibition in vivo at 20 mg/kg (Rattus norvegicus [2]): 15% | Activity (Rattus norvegicus [3]): Toxic

CC1Cc2cc(CC(N)=O)cc(Cl)c2O1 (configuration not stated)
inhibition in vivo at 100 mg/kg (Rattus norvegicus [1]): 17% | inhibition in vivo at 20 mg/kg (Rattus norvegicus [2]): 2% | Activity (Rattus norvegicus [3]): Toxic

CC(C(=O)O)c1cc(Cl)c2c(c1)CC(C)(C)O2 (configuration not stated)
inhibition in vivo at 100 mg/kg (Rattus norvegicus [1]): 58% | inhibition in vivo at 20 mg/kg (Rattus norvegicus [2]): 45% | ED50 (Rattus norvegicus [4]): 45 mg/kg | LD50 [5]: 720 mg/kg | Activity (Rattus norvegicus [3]): Toxic

CC1Cc2cc(C(C)C(=O)O)cc(Cl)c2O1.NC1CCCCC1 (configuration not stated)
inhibition in vivo at 100 mg/kg (Rattus norvegicus [1]): 57% | inhibition in vivo at 20 mg/kg (Rattus norvegicus [2]): 35% | Activity (Rattus norvegicus [3]): Toxic

CC1(C)Cc2cc(C(=O)/C=C/C(=O)O)cc(Cl)c2O1
inhibition in vivo at 100 mg/kg (Rattus norvegicus [1]): 3% | inhibition in vivo at 20 mg/kg (Rattus norvegicus [2]): 9% | Activity (Rattus norvegicus [3]): Toxic

CC1(C)Cc2cc(C(=O)CCC(=O)O)cc(Cl)c2O1
inhibition in vivo at 100 mg/kg (Rattus norvegicus [1]): 37% | inhibition in vivo at 20 mg/kg (Rattus norvegicus [2]): 24% | Activity (Rattus norvegicus [3]): Toxic

CC1(C)Cc2cc(CCCC(=O)O)cc(Cl)c2O1
inhibition in vivo at 100 mg/kg (Rattus norvegicus [1]): 32% | inhibition in vivo at 20 mg/kg (Rattus norvegicus [2]): 32% | Activity (Rattus norvegicus [3]): Toxic

CCCCC1C(=O)N(c2ccccc2)N(c2ccccc2)C1=O [PHENYLBUTAZONE]
inhibition in vivo at 50 mg/kg (Rattus norvegicus [6]): 51% | inhibition in vivo at 10 mg/kg (Rattus norvegicus [7]): 24% | Activity (Rattus norvegicus [8]): Toxic
